Data as given in paper PMC8725005, “The crystal structure of DynF from the dynemicin-biosynthesis pathway of Micromonospora chersina” (Acta Crystallographica. Section F, Structural Biology …, 2022).

Experiments:
DynF = molecular target: T1, DynF (Micromonospora chersina, UniProt B2BM43); test: X-ray crystal structure ([…] Å); GC-MS of acetonitrile extract; type: binding; settings: co-purified from E. coli; bound inside the beta-barrel cavity of each protomer
T1 construct: full-length, N-terminal 6xHis tag cleaved with TEV protease (one extra Ser before Met1); E. coli BL21 (DE3); dimer
T1 sequence (B2BM43 1-210): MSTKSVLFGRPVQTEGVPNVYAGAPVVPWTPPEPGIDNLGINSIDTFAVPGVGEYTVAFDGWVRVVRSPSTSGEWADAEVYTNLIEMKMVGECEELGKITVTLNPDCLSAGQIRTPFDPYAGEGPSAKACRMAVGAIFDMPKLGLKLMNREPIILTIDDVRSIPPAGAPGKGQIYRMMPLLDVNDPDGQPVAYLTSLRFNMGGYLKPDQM

[1] = molecular target: the molecule itself; test: crystal structure; sitting-drop vapor diffusion, 293 K, 25%(w/v) PEG 1500, 0.1 M PCB buffer pH 7.0; space group C222(1); two molecules in the asymmetric unit; palmitic acid bound

## CCCCCCCCCCCCCCCC(=O)O [palmitic acid]
DynF
  X-ray crystal structure (1.50 Å); GC-MS of acetonitrile extract: confirmed by gas chromatography–mass spectrometry (GC-MS) as palmitic acid

B1: DynF from Micromonospora chersina ATCC53710 (natural protein)
chain: MSTKSVLFGRPVQTEGVPNVYAGAPVVPWTPPEPGIDNLGINSIDTFAVPGVGEYTVAFDGWVRVVRSPSTSGEWADAEVYTNLIEMKMVGECEELGKITVTLNPDCLSAGQIRTPFDPYAGEGPSAKACRMAVGAIFDMPKLGLKLMNREPIILTIDDVRSIPPAGAPGKGQIYRMMPLLDVNDPDGQPVAYLTSLRFNMGGYLKPDQM
notes: DynF, Micromonospora chersina ATCC53710, protein of unknown function from the dynemicin biosynthetic gene cluster; GenBank ACB47058.1; the insert primers run from the ATG to the TGA stop codon; The tag mgsshhhhhhenlyfq/s was cut by TEV protease at the slash, so one serine of the tag stays before Met1 (211 residues a chain; 418 of 422 residues built for two chains); Vector pNIC28-Bsa4 (Addgene …)
[1]
  binding result: binds
